Assay results from US5061794A, “Cephalosporin derivatives, and antibacterial agents” (priority 1986, dated 1991).
Where a name gives a salt, the structure may show the parent alone. Read-outs that look alike come from different tables or passages of the source.

Assays:
Ps. aeruginosa AK 109 = assay: in vitro antibacterial activity, agar plate dilution method (MIC); type: cell-based, Pseudomonas aeruginosa; settings: Pseudomonas aeruginosa, AK109, 16 h, Ps. aeruginosa AK 109; 10^6 CFU/ml; read-out: Minimum Inhibitory Concentration (MIC)
In short: (§1)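 Agar plate dilution on Mueller Hinton agar containing graded compound levels, inoculated at 10^6 CFU/ml from overnight Mueller Hinton broth cultures. MIC (μg/ml) read after 16 h at 37°C.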

Ps. aeruginosa AKR17 = assay: as above; type: cell-based, Pseudomonas aeruginosa; settings: Pseudomonas aeruginosa, read-out: Minimum Inhibitory Concentration (MIC)
In short: as §1

Ps. aeruginosa IF03445 = assay: as above; type: cell-based, Pseudomonas aeruginosa; settings: Pseudomonas aeruginosa, 10^6 CFU/ml
In short: as §1

Ps. cepacia 23 = assay: as above; type: cell-based, Pseudomonas cepacia; settings: Burkholderia cepacia, 16 h; Ps. cepacia 23; 10^6 CFU/ml; read-out: Minimum Inhibitory Concentration (MIC)
In short: as §1

S. marcescens No. 16-2 = assay: as above; type: cell-based; settings: Serratia marcescens, NO.162, 16 h, 10^6 CFU/ml
In short: as §1

E. cloacae 963 = assay: as above; type: cell-based; settings: 10^6 CFU/ml
In short: as §1

E. coli GN5482 = assay: as above; type: cell-based; settings: Escherichia coli, read-out: Minimum Inhibitory Concentration (MIC)
In short: as §1

M. morganii GN5407 = assay: as above; type: cell-based; settings: Morganella morganii, 10^6 CFU/ml
In short: as §1

K. pneumoniae PCI-602 = assay: as above; type: cell-based; settings: Klebsiella pneumoniae, PCI602, 16 h, 10^6 CFU/ml
In short: as §1

P. vulgaris No. 33 = assay: as above; type: cell-based; settings: Proteus vulgaris, 10^6 CFU/ml
In short: as §1

K. oxytoca GN10650 = assay: as above; type: cell-based; settings: Klebsiella oxytoca, 10^6 CFU/ml
In short: as §1

S. aureus 209P NIHJ-JC1 = assay: as above; type: cell-based; settings: Staphylococcus aureus, 16 h, read-out: Minimum Inhibitory Concentration (MIC)
In short: as §1

S. marcescens IAM 1184 = assay: as above; type: cell-based; settings: Serratia marcescens, IAM1184, 16 h, S. marcescens IAM 1184; 10^6 CFU/ml; read-out: Minimum Inhibitory Concentration (MIC)
In short: as §1

P. vulgaris HX-19 = assay: as above; type: cell-based; settings: Proteus vulgaris, HX19, 16 h, P. vulgaris HX-19; 10^6 CFU/ml; read-out: Minimum Inhibitory Concentration (MIC)
In short: as §1

E. cloacae Nek 39 = assay: as above; type: cell-based; settings: Enterobacter cloacae, NEK39, 16 h, 10^6 CFU/ml
In short: as §1

K. pneumoniae No. 42 = assay: as above; type: cell-based; settings: Klebsiella pneumoniae, 10^6 CFU/ml
In short: as §1

E. coli NIHJ JC2 = assay: as above; type: cell-based; settings: Escherichia coli
In short: as §1

A. calcoaceticus No. 4 = assay: as above; type: cell-based, Acinetobacter calcoaceticus; settings: Acinetobacter calcoaceticus, NO.4, 16 h, A. calcoaceticus No. 4; 10^6 CFU/ml; read-out: Minimum Inhibitory Concentration (MIC)
In short: as §1

E. coli CSH2 (RK1) = assay: microbe, parasite or virus in culture; type: cell-based; settings: Escherichia coli, 16 h, read-out: Minimum Inhibitory Concentration (MIC), *E. coli CSH2 (RK1), lactamase-producing strain; 10^6 CFU/ml
In short: as §1

E. coli CSH(RE45) = assay: microbe, parasite or virus in culture; type: cell-based; settings: Escherichia coli, 16 h, read-out: Minimum Inhibitory Concentration (MIC), *E. coli CSH(RE45), lactamase-producing strain; 10^6 CFU/ml
In short: as §1

`CO/N=C(\C(=O)N[C@@H]1C(=O)N2C(C(=O)O)=C(CSc3nnc(-c4ccccc4)s3)CS[C@H]12)c1csc(N)n1` [compound 5, 7β-[2-(2-aminothiazol-4-yl)-2-methoxyiminoacetamido]-3-(5-phenyl-1,3,4-thiadiazol-2-yl) thiomethyl-3-cephem-4-carboxylic acid trifluoroacetate, reference compound] gave an MIC (Ps. aeruginosa AK 109) of 50 mg/L, an MIC (Ps. aeruginosa AKR17; 16 h, Ps. aeruginosa AKR17, 10^6 CFU/ml) of over 100 mg/L and an MIC (Ps. aeruginosa IF03445; 16 h, Ps. aeruginosa IF03445, read-out: Minimum Inhibitory Concentration (MIC)) of 50 mg/L. The MIC (Ps. cepacia 23) was 3.12 mg/L, the MIC (S. marcescens No. 16-2; *S. marcescens No. 16-2, lactamase-producing strain, read-out: Minimum Inhibitory Concentration (MIC)) was 3.12 mg/L and the MIC (E. cloacae 963; Enterobacter cloacae, 16 h, E. cloacae 963, read-out: Minimum Inhibitory Concentration (MIC)) was 0.78 mg/L. It also gave an MIC (E. coli GN5482; 16 h, *E. coli GN5482, lactamase-producing strain, 10^6 CFU/ml) of 0.39 mg/L, an MIC (M. morganii GN5407; 16 h, *M. morganii GN5407, lactamase-producing strain, read-out: Minimum Inhibitory Concentration (MIC)) of 0.78 mg/L and an MIC (K. pneumoniae PCI-602; K. pneumoniae PCI-602, read-out: Minimum Inhibitory Concentration (MIC)) of 0.0125 mg/L. It also gave an MIC (P. vulgaris No. 33; 16 h, *P. vulgaris No. 33, lactamase-producing strain, read-out: Minimum Inhibitory Concentration (MIC)) of 0.39 mg/L, an MIC (K. oxytoca GN10650; 16 h, *K. oxytoca GN10650, lactamase-producing strain, read-out: Minimum Inhibitory Concentration (MIC)) of 6.25 mg/L and an MIC (S. aureus 209P NIHJ-JC1; S. aureus 209P NIHJ-JC1, 10^6 CFU/ml, 37° C., 16 hours) of 0.39 mg/L. For the same compound, the MIC (S. marcescens IAM 1184) was 0.78 mg/L, the MIC (P. vulgaris HX-19) was 0.0125 mg/L and the MIC (E. cloacae Nek 39; *E. cloacae Nek 39, lactamase-producing strain, read-out: Minimum Inhibitory Concentration (MIC)) was 3.12 mg/L. The MIC (K. pneumoniae No. 42; 16 h, *K. pneumoniae No. 42, lactamase-producing strain, read-out: Minimum Inhibitory Concentration (MIC)) was 0.78 mg/L, the MIC (E. coli NIHJ JC2; NIHJJC2, E. coli NIHJ JC2, 10^6 CFU/ml, 37° C., 16 hours, read-out: Minimum Inhibitory Concentration (MIC)) was 0.39 mg/L and the MIC (A. calcoaceticus No. 4) was 3.12 mg/L. It also gave an MIC (E. coli CSH2 (RK1)) of 0.2 mg/L and an MIC (E. coli CSH(RE45)) of 0.2 mg/L.
Compound `Nc1nc(/C(=N/OC2(C(=O)O)CC2)C(=O)N[C@@H]2C(=O)N3C(C(=O)O)=C(CSc4nnc(-c5ccc(O)c(O)c5)o4)CS[C@H]23)cs1` [Ex. 12, disodium 7β-[2-(2-aminothiazol-4-yl)-2-(1-carboxylate-1-cyclopropoxyimino)acetamido]-3-[5-(3,4-dihydroxvphenyl)-1,3,4-oxadiazol-2-vl]thiomethyl-3-cephem-4-carboxylate] has an MIC (Ps. aeruginosa AK 109) of 0.2 mg/L, an MIC (Ps. aeruginosa AKR17; AKR17, 16 h) of 3.12 mg/L and an MIC (Ps. aeruginosa IF03445; IF03445, 16 h, read-out: Minimum Inhibitory Concentration (MIC), Ps. aeruginosa IF03445) of 0.39 mg/L. The MIC (Ps. cepacia 23) was under 0.006 mg/L, the MIC (S. marcescens No. 16-2; read-out: Minimum Inhibitory Concentration (MIC), *S. marcescens No. 16-2, lactamase-producing strain) was 1.56 mg/L and the MIC (E. cloacae 963; Enterobacter cloacae, 963, 16 h, read-out: Minimum Inhibitory Concentration (MIC), E. cloacae 963) was 0.05 mg/L. The MIC (E. coli GN5482; GN5482, 16 h) was 0.2 mg/L, the MIC (M. morganii GN5407; GN5407, 16 h, read-out: Minimum Inhibitory Concentration (MIC), *M. morganii GN5407, lactamase-producing strain) was 0.025 mg/L and the MIC (K. pneumoniae PCI-602; read-out: Minimum Inhibitory Concentration (MIC), K. pneumoniae PCI-602) was under 0.006 mg/L. The MIC (P. vulgaris No. 33; NO.33, 16 h, read-out: Minimum Inhibitory Concentration (MIC), *P. vulgaris No. 33, lactamase-producing strain) was 0.025 mg/L, the MIC (K. oxytoca GN10650; GN10650, 16 h, read-out: Minimum Inhibitory Concentration (MIC), *K. oxytoca GN10650, lactamase-producing strain) was 0.025 mg/L and the MIC (S. aureus 209P NIHJ-JC1) was 12.5 mg/L. The MIC (S. marcescens IAM 1184) was 0.0125 mg/L, the MIC (P. vulgaris HX-19) was under 0.006 mg/L and the MIC (E. cloacae Nek 39; read-out: Minimum Inhibitory Concentration (MIC), *E. cloacae Nek 39, lactamase-producing strain) was 0.025 mg/L. It also gave an MIC (K. pneumoniae No. 42; NO.42, 16 h, read-out: Minimum Inhibitory Concentration (MIC), *K. pneumoniae No. 42, lactamase-producing strain) of 0.025 mg/L, an MIC (E. coli NIHJ JC2; NIHJJC2, 16 h, read-out: Minimum Inhibitory Concentration (MIC), E. coli NIHJ JC2, 10^6 CFU/ml, 37° C.) of 0.05 mg/L and an MIC (A. calcoaceticus No. 4) of 0.05 mg/L. For the same compound, the MIC (E. coli CSH2 (RK1)) was under 0.006 mg/L and the MIC (E. coli CSH(RE45)) was under 0.006 mg/L.
